Legend:
[1] = test system: pregnant diabetic NOD mice; experiment: Pulse Wave Doppler of uterine arterial blood flow (resistance index); assay type: in vivo, mouse
Experimental: Uterine artery resistive index (RI) was calculated for each vessel according to the equation: RI=(Peak Systolic Velocity−Peak Diastolic Velocity)/Peak Systolic Velocity to assess maternal hemodynamic characteristics of tacrolimus-treated versus the normoglycemic and the vehicle-treated diabetic NOD mice.
Following the procedure described by Mu and Adamson (Am. J. Physiol. Heart Circ. Physiol. 291: H1421-H1428) for comparing patterns of blood flow hemodynamics in the uterine artery, transcutaneous ultrasound biomicroscopy and Doppler waveform recording were collected and analyzed from tacrolimus treated versus the diabetic and obese mice and their normoglycemic control cohort of mated pregnant mice using a microultrasound biomicroscope (Vivo770, Visual Sonic Inc., Toronto, Ontario, Canada) and a 30-40 MHz Real-Time Micro Visualization scanhead transducer operating at two frames per second (RMV704 or 708, VisualSonics Inc). […] Maternal heart and respiration rates were recorded via a physiological controller unit connected to the mechanical platform. […] Systolic and diastolic flow parameters were assessed in the selected point along the course of the uterine artery at 3-5 min intervals and the resistance index (RI=[PSV−EDV]/PSV) was calculated when EDV>0 to measure the pulsatility of arterial blood velocity waveforms.

transplant patients = settings: cited from earlier work
pregnant diabetic mice = experiment: Fetal weight and intrauterine growth restriction (IUGR); assay type: in vivo, mouse
From the text: FIGS. 14A and 14B show representative fetal weights (FIG. 14A) and percent of dams with intrauterine growth restricted (IUGR) pups (FIG. 14B) as measured on day 18.5 of pregnancy in the tacrolimus-treated diabetic mice versus vehicle-treated diabetic dams and those normoglycemic control cohorts. Whiskers in FIG. 14A represent the 10th and 90th percentiles of fetal body weight. Pups with weights below the 10th percentile of the normoglycemic control were considered intrauterine growth restricted (IUGR) as indicated by the shaded region. […] Numbers in brackets in FIG. 14A represents number of pups examined. “n” denotes number of dams. p<0.05.

[2] = test system: uteri of diabetic NOD mice; experiment: Uterodome maturation (scanning electron microscopy) and uterine LIF Western blot; assay type: in vivo, mouse
Experimental: Using ice-cold sterile glass Dounce-tissue homogenizer, uterine samples collected from virgin and pregnant normoglycemic and diabetic NOD mice were homogenized in 3 volumes of the provided 1× homogenization buffer [Cytosolic and Nuclear Extraction Buffer Kit (Biovision Inc., CA, USA)] as per the manufacturer's instructions. Homogenized samples were centrifuged at 4° C. for 5 minutes at 16,000 g. Supernatants, referred to as cytosolic extracts, were immediately transferred into a clean pre-chilled tube kept on ice. Extraction of nuclear proteins from the remaining insoluble (pellet) fractions followed using ice-cold Nuclear Extraction Buffer Mix according to the supplier's instructions. Protein content of the extracted cytosolic and nuclear fractions was determined by Bradford assay. Extracted protein samples were aliquoted and stored at −80° C. for further analyses.
Mouse uterine cytosolic and nuclear proteins were resolved on 6 or 8% (w/v) Tris-SDS denaturing polyacrylamide gels in 1× sample loading buffer (150 mM sodium chloride, 1.0% Triton X-100 and 50 mM Tris, pH 8.0). Urea (8M) was added to the Tris-based SDS-PAGE for the detection of MUC1. […] Background-corrected intensities of Western blot protein bands on scanned films were processed using Image J. Data were expressed as means±SEM. GAPDH (detected as a band of approximately 37 kDa) was used as an internal loading control. […]

[3] = test system: high fat fed female NZO mice; experiment: Ovarian histology of macrolide-treated chronically high fat fed NZO mice; assay type: in vivo, mouse; settings: chronically high fat diet fed NZO mice
Experimental: Statistical differences between groups were measured by two-way analysis of variance (ANOVA) followed by Bonferroni post-hock t-test comparing effect of all tested macrolides on mean follicular structure counts/unit area at 95% confidence. Scale bars=200 μm for B, D, F, G, H, I, J and 50 μm for A, C, E. N=10 (HFD-NZO), 6 per treatment group. A, C and E are higher magnifications of B, D and F respectively. * denoting ovarian cyst(s).
For the comparative evaluation of other macrolide drugs to tacrolimus, mice starting at 7 weeks of age were maintained on the high fat diet for a total of 13 weeks of study period. Mice were entered into the experiments when determined to be glucose intolerant as described above. Methods of drug administration and other experimental methods were as described above.

C=CC[C@@H]1/C=C(\C)C[C@H](C)C[C@H](OC)[C@H]2O[C@@](O)(C(=O)C(=O)N3CCCC[C@H]3C(=O)O[C@H](/C(C)=C/[C@@H]3CC[C@@H](O)[C@H](OC)C3)[C@H](C)[C@@H](O)CC1=O)[C@H](C)C[C@@H]2OC [tacrolimus]
treated pregnant diabetic mice with sustained decidual arteriolar flow velocity and normalized vascular resistance to uterine blood flow ([1]; Doppler waveform, p<0.05 vs vehicle-treated diabetic mice): 88%
uterine arterial hemodynamics ([1]; throughout pregnancy): improved uterine arterial hemodynamics
safety of use during pregnancy (transplant patients): safe drug for use during pregnancy
treated pregnant diabetic mice in which IUGR development was inhibited (pregnant diabetic mice; 0.1 mg/kg s.c. every other day, weeks 9-11 of age): 88%
fetal body weight (pregnant diabetic mice; day 18.5 of pregnancy, 0.1 mg/kg s.c. every other day, weeks 9-11 of age, p<0.05): significantly improved fetal body weight
pups born to diabetic dams rescued from inflammatory-mediated growth restriction (pregnant diabetic mice; short term administration): 88%
uterine LIF protein expression (Western blot) ([2]; days 4.5 and 6.5 postcoitum): induced LIF protein expression
maturation of uterodomes at implantation sites ([2]; pregnancy day 4.5): inducing maturation of uterodomes
follicular growth pattern in the ovaries [3]: restored follicular growth pattern
ovarian cyst formation ([3]; p<0.001): inhibited the development of ovarian cysts
ovarian follicular atresia ([3]; vs untreated HFD-NZO): significantly inhibited ovarian follicular atresia (p<0.01)

Reference: patent publication US9427433B2, “Methods and compositions for enhancing fertility and/or inhibiting pregnancy failure and restoring glucose tolerance” (Queen's University at Kingston, priority 2011, dated 2016)
